The values below come from paper doi:10.1101/2021.09.28.462154v2 (biorxiv, 2022).

For orientation: EC50 means the concentration that produces a half-maximal response. Higher therefore signals a need for much substance.

The target of one experiment is T1, OR5AN1 (Homo sapiens, UniProt Q8NGI8).
T1 sequence (Q8NGI8 1-311): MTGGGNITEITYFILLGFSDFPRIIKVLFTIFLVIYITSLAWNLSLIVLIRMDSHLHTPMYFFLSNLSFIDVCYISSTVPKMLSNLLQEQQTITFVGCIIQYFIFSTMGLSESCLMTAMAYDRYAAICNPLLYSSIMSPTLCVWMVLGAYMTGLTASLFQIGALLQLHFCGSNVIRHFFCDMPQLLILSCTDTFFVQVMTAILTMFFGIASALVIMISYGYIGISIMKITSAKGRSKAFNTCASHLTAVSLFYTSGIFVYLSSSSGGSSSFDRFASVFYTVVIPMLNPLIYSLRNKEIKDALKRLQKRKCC
Kind of experiment: cAMP accumulation. Format: biochemical. A general note: Changes in cAMP serve as a functional read-out for many G protein-coupled receptors.

The target in a further experiment is T2, OR1A1 (Homo sapiens, UniProt Q9P1Q5).
T2 sequence (Q9P1Q5 1-309): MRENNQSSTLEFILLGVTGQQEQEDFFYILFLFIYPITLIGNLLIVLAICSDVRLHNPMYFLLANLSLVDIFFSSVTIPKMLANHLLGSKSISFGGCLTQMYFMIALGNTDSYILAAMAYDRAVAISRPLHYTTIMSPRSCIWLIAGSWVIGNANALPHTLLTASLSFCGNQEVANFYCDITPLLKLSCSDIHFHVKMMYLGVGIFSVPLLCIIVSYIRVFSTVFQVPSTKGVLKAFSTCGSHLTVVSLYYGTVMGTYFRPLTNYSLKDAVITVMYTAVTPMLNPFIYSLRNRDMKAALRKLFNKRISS
Kind of experiment: cAMP accumulation. Format: biochemical.

Consider `C[C@@H]1CCCCCCCCCCCCC(=O)C1` [muscone], for which the EC50 on OR5AN1 is 290 nM.
For `CCCCCC(=O)C(C)C(C)=O` (centres unmarked) [3-methyl-2,4-nonanedione], at OR1A1, the concentration for a half-maximal effect (EC50) is 388 nM.
